{
  "source": "patent US20220387358A1",
  "about": "“CERAMIDE ANALOG SACLAC MODULATES SPHINGOLIPID LEVELS AND MCL-1 SPLICING TO INDUCE APOPTOSIS IN ACUTE MYELOID LEUKEMIA” (University of Virginia Patent Foundation, priority 2019, published 2022)",
  "key": {"OCI-AML2 cells": {"test_system": "OCI-AML2 cells", "assay": "Western blot of SF3B1, Mcl-1S and Mcl-1L protein expression", "type": "cell-based, human", "description": "Cells were plated at 2.5×10^5 cells per ml in 6-well plates and treated with drug, vehicle or siRNA at the indicated doses and time points. Cells were harvested, washed with PBS and lysed prior to preparation of protein extracts for western blotting.\nMore particularly, cells were lysed with RIPA buffer (#R0278, Sigma, St. Louis, Mo., United States of America) containing phosphatase inhibitor cocktails 2 and 3 (Sigma #P5726, #P0044) and protease inhibitor cocktail (#P8340, Sigma, St. Louis, Mo., United States of America). Protein was quantified using a bicinchoninic acid (BCA) protein assay kit (#23225, Pierce, Waltham, Mass., United States of America). Samples were resolved on a Bolt 4-12% SDS-PAGE gel (#NW00082, ThermoFisher Scientific, Waltham, Mass., United States of America) and transferred to PVDF membrane (#170-4274, Bio-Rad Laboratories, Hercules, Calif., United States of America). Antibodies were obtained from Cell Signaling Technology (Danvers, Mass., United States of America) unless indicated otherwise. Primary antibodies used were: Mcl-1 (#5453, RRID #AB 10694494), SF3B1 (#14434, RRID #AB 2798479), β-actin (#3700, RRID #AB_2242334) and AC (BD Biosciences #612302 (San Jose, California, United States of America), RRID #AB_399617). Secondary antibodies used were HRP-linked goat anti-mouse (#7076, RRID #AB_330924) or goat anti-rabbit IgG (#7074, RRID # AB_2099233). Clarity Max Western ECL Substrate (#1705062, Bio-Rad Laboratories, Hercules, Calif., United States of America) was added to visualize relative protein expression by chemiluminescence using the Bio-Rad ChemiDoc MP imaging system (Bio-Rad Laboratories, Hercules, Calif., United States of America). Quantification was done using Bio-Rad ImageLab 6.0.1 software (Bio-Rad Laboratories, Hercules, Calif., United States of America). For quantification, bands were normalized to β-actin as a loading control."}, "hAML cell lines": {"test_system": "hAML cell lines", "assay": "Venetoclax sensitivity of hAML cell lines", "type": "cell-based, human", "conditions": "sensitive (MV4-11, MOLM-13, OCL-AML2) vs resistant (MM-6, THP-1, HL-60/VCR, OCI-AML3)", "quoted_text": "Venetoclax sensitive cell lines can be co-treated with SACLAC (0.3 to 2.5 μM) and venetoclax (1 to 32 nM). […] Cell viability can be determined by MTS assay 24 hours after treatment. CompuSyn software (ComboSyn Inc., Paramus, N.J., United States of America) can be used to determine synergy. A combination index (CI) of >1, 1, and <1 indicates antagonism, additive effect, and synergism, respectively, with increasing synergism indicated by values approaching zero."}, "acid ceramidase (AC)": {"target": "T1, acid ceramidase (AC) (Homo sapiens, UniProt Q13510)", "T1 construct": "endogenous in cells; host or cells: HL-60/VCR, THP-1 and OCI-AML2 human AML cell lines", "T1 sequence (Q13510 143-395 limits assumed)": "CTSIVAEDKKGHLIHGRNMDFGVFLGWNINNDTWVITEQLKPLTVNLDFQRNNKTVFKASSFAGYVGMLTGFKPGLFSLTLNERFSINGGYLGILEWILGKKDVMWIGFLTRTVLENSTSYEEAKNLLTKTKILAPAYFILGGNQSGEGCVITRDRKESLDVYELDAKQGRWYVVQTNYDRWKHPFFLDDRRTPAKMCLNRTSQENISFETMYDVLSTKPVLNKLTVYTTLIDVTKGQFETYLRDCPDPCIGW", "T1 sequence (Q13510 22-142 limits assumed)": "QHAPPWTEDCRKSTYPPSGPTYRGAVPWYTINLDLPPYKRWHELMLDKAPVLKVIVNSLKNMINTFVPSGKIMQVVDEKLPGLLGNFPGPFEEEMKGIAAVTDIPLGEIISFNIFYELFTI", "assay": "Acid ceramidase activity assay (RBM14C12 fluorogenic substrate) in human AML cell lines", "type": "cell-based", "conditions": "LCL204 5 or 10 μM vs SACLAC 1.25 or 2.5 μM; HL-60/VCR, THP-1, OCI-AML2", "description": "Cells were seeded at 2×10^4 cells per well in 50 μl Acid ceramidase activity was measured at 24 hours using the RBM14C12 fluorogenic substrate as previously described (22,34)."}},
  "data": [
    {"smiles": "CN(C)CC[C@H](CSc1ccccc1)Nc1ccc(S(=O)(=O)NC(=O)c2ccc(N3CCN(Cc4ccccc4-c4ccc(Cl)cc4)CC3)cc2)cc1[N+](=O)[O-]", "note": "[ABT-737, 4-[4-[[2-(4-chlorophenyl)phenyl]methyl]piperazin-l-yl]-N-[4-[[(2R)-4-(dimethylamino)-1-phenylsulfanylbutan-2-yl]amino]-3-nitrophenyl]sulfonylbenzamide, reference compound]", "values": [
      {"measurement": "Mcl-1 cleavage fragment (caspase-mediated)", "setting": "OCI-AML2 cells; ABT-737 75 nM, 24 hours, abrogated by Z-VAD-FMK 50 μM", "result": "smaller fragment of approximately 22 kDa"}
    ]},
    {"smiles": "CO[C@]1(C)C[C@@]2(CO2)[C@H](O)[C@@H](/C=C/C(C)=C/C[C@@H]2O[C@H](C)[C@H](NC(=O)/C=C\\[C@H](C)OC(C)=O)C[C@@H]2C)O1", "note": "[Spliceostatin A, reference compound]", "values": [
      {"measurement": "Mcl-1S protein", "setting": "OCI-AML2 cells; 5, 10 or 20 nM, 6 hours", "result": "dose-dependent increase"}
    ]},
    {"smiles": "CC1(C)CCC(CN2CCN(c3ccc(C(=O)NS(=O)(=O)c4ccc(NCC5CCOCC5)c([N+](=O)[O-])c4)c(Oc4cnc5[nH]ccc5c4)c3)CC2)=C(c2ccc(Cl)cc2)C1", "note": "[Venetoclax]", "values": [
      {"measurement": "difference in sensitivity between venetoclax sensitive and resistant cell lines", "setting": "hAML cell lines", "result": "> 100", "unit": "fold"}
    ]},
    {"smiles": "CCCCCCCCCCCCCCN[C@H](CO)[C@H](O)c1ccc([N+](=O)[O-])cc1", "note": "[LCL204, (1R, 2R)-2-N-(tetradecylamino)-1-(4′-nitrophenyl)-1,3-propandiol, reference compound]", "values": [
      {"measurement": "dose required to achieve similar AC inhibition as SACLAC", "setting": "acid ceramidase (AC)", "result": "four-fold higher dose"}
    ]},
    {"smiles": "CCCCCCCCCCCCC/C=C/[C@@H](O)[C@H](CO)NC(=O)CCCCCCCCCCCCCCC", "note": "[C16 ceramide, reference compound]", "values": [
      {"measurement": "SF3B1 protein", "setting": "OCI-AML2 cells; C16 ceramide 20 μM, 48 hours", "result": "reduction"},
      {"measurement": "ratio of Mcl-1S to Mcl-1L", "setting": "OCI-AML2 cells; C16 ceramide 20 μM, 48 hours", "result": "increase"}
    ]}
  ]
}
